A short description of assay [1]: Induction of membrane disruption using DMPG lipid vesicles at 187.5 uM. It is filed as functional.
Assay [2] is described as follows: Induction of membrane disruption using DMPS lipid vesicles at 187.5 uM. It is filed as functional.
Assay [3] is described as follows: Induction of membrane disruption using DMPE lipid vesicles at 187.5 uM. It is filed as functional.
Assay [4] in a line: Induction of membrane disruption using DMPC lipid vesicles at 187.5 uM. It is filed as functional.
Assay [5] concerns U-251. Put plainly: Induction of membrane disruption in human U251MG cells assessed as cell structure disruption at 1000 uM by trypan blue exclusion assay. It is filed as functional, cell-based.
Assay [6] relates to IN1760. Put plainly: Induction of membrane disruption in human IN1760 cells assessed as cell structure disruption at 1000 uM by trypan blue exclusion assay. It is filed as functional, cell-based.
The subject of assay [7] is U-251. Put plainly: Induction of membrane disruption in human U251MG cells assessed as dye uptake at 200 to 500 uM by trypan blue exclusion assay. It is filed as functional, cell-based.
Assay [8] relates to IN1760. Put plainly: Induction of membrane disruption in human IN1760 cells assessed as dye uptake at 200 to 500 uM by trypan blue exclusion assay. It is filed as functional, cell-based.
A short description of assay [9]: Antiproliferative activity against human IN1472 cells after 72 hrs by SRB method. To be noted: IN1472, 72 h. It is filed as functional, cell-based. Background: Sulforhodamine B stains cellular protein and so reports cell mass.
Assay [10] deals with IN1472. Put plainly: Induction of membrane disruption in human IN1472 cells assessed as dye uptake at 200 to 500 uM by trypan blue exclusion assay. It is filed as functional, cell-based.
The test system of assay [11] is IN1528. Put plainly: Induction of membrane disruption in human IN1528 cells assessed as cell structure disruption at 1000 uM by trypan blue exclusion assay. It is filed as functional, cell-based.
A short description of assay [12]: Antiproliferative activity against human IN1760 cells after 72 hrs by SRB method. It is filed as functional, cell-based. To be noted: IN1760, 72 h.
A short description of assay [13]: Antiproliferative activity against human IN1528 cells after 72 hrs by SRB method. It is filed as functional, cell-based. Conditions: IN1528, 72 h.
Assay [14] deals with IN1472. Put plainly: Induction of membrane disruption in human IN1472 cells assessed as cell structure disruption at 1000 uM by trypan blue exclusion assay. It is filed as functional, cell-based.
Assay [15] concerns IN1528. Put plainly: Induction of membrane disruption in human IN1528 cells assessed as dye uptake at 200 to 500 uM by trypan blue exclusion assay. It is filed as functional, cell-based.
Assay [16] is described as follows: Antiproliferative activity against human U251MG cells after 72 hrs by SRB method. It is filed as functional, cell-based. To be noted: U-251, 72 h.

The term EC50 denotes the concentration needed to bring the measured effect to its halfway point. A low value points to higher potency in that assay.

Active and inactive are the calls of the source. The rule behind the calls is not given here.

With `CN(C(=O)c1ccncc1)c1ccncc1`, the Activity turned out to be 30% in [1], 23.3% in [2], 34.9% in [3] and 34.1% in [4].
In the same order, the values of `CCCCCCCCc1ccc(C(=O)N(C)c2ccc(CCCCCCCC)cc2)cc1` are 16.6%, 27.2%, 34.7% and 27.3%.
In the case of `CCCCCCCC[n+]1ccc(C(=O)N(C)c2cc[n+](CCCCCCCC)cc2)cc1`, the Activity stood at 44.2% in [1], 64.6% in assay [2], 77.7% in assay [3] and 38.8% in assay [4]. Besides, the outcome with U-251 [5], in the assay with IN1760 [6], with U-251 [7], in the assay on IN1760 [8], in the assay with IN1472 [10] and in the assay on IN1528 [11] was Active. For the same compound, the outcome with IN1472 [14] and with IN1528 [15] was Active. Moreover, the half-maximal effective concentration (EC50) turned out to be 78 µM in [9], 19.5 µM in assay [12], 9.8 µM in [13] and 312 µM in assay [16].

These data come from ChEMBL document CHEMBL3351806, “Development of a novel, multifunctional, membrane-interactive pyridinium salt with potent anticancer activity” (Bioorg Med Chem Lett, 2014).
